Data published in US12286427B2, “Heterocyclic compounds and uses thereof” (Kumquat Biosciences Inc., priority 2020, dated 2025).
pIC50: −log10 of the molar value.

What was measured:
wildtype Kras = molecular target: T1, wildtype Kras (Homo sapiens, UniProt P01116); assay: Nucleotide exchange assay (SOS1-mediated, BODIPY FL GDP fluorescence); type: biochemical; conditions: 250 nM or 500 nM GDP-loaded K-Ras, SOS1 catalytic domain, fluorescent labelled GDP 0.36 μM, 70 minutes; read-out: IC50 against wildtype Kras
T1 construct: GST (N); made in house; host or cells: E. coli, e.g. BL21 (DE3)
Description: (§1) For example, 250 nM or 500 nM GDP-loaded K-Ras proteins (e.g., wildtype or a mutant thereof including those mentioned in Example 6), each was incubated with different concentrations of compounds (for example ˜60 μM, ˜20 μM, ˜6.7 μM, ˜2.2 μM, ˜0.7 μM, ˜0.2 μM subject compound). A control reaction without subject compound was also included. SOS1 (catalytic domain) protein was added to the K-Ras protein solution. The nucleotide exchange reaction was initiated by adding fluorescent labelled GDP (Guanosine 5′-Diphosphate, BODIPY™ FL 2′-(or-3′)—O—(N-(2-Aminoethyl) Urethane) to a final concentration of 0.36 μM. Fluorescence was measured every 30 s for 70 minutes at 490 nm/515 nm (excitation/emission) in a M1000Pro plate reader (Tecan). Data is exported and analyzed to calculate an IC50 using GraphPad Prism (GraphPad Software). Samples were tested with or without a subject compound disclosed herein including compounds exemplified in Table 1 to assess each compound's ability to inhibit K-Ras signaling or its IC50 against a given Ras protein (e.g., a given mutant K-Ras) of interest.

mutant Kras = mutant Kras (Homo sapiens, UniProt P01116); assay: as above; type: biochemical; conditions: 250 nM or 500 nM GDP-loaded K-Ras, SOS1 catalytic domain, fluorescent labelled GDP 0.36 μM, 70 minutes; read-out: IC50 against mutant Kras
Description: as §1

T1 sequence (P01116 1-188 isoform P01116-2): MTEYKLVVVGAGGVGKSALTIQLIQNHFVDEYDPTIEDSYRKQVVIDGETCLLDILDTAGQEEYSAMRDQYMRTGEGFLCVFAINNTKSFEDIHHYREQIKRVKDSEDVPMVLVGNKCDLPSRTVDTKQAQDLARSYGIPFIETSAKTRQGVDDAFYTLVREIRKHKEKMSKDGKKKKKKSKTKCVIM
Chain of mutant Kras (P01116 whole entry G12D, form open, the tested form may be a part): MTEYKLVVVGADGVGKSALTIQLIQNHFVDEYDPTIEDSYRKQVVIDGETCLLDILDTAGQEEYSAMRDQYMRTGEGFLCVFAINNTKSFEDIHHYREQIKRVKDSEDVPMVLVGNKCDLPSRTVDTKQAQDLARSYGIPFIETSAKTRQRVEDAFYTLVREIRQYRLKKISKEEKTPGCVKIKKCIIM

| Compound | pIC50 (wildtype Kras) | pIC50 (mutant Kras) |
| --- | --- | --- |
| CN1CCC[C@H]1COc1nc(N2CC(N)CC(O)C2)c2cc(Cl)c(-c3cccc4sc(N)nc34)c(F)c2n1 (stereo partly drawn) [Compound 5, 5-amino-1-(7-(2-aminobenzo[d]thiazol-4-yl)-6-chloro-8-fluoro-2-(((S)-1-methylpyrrolidin-2-yl)methoxy)quinazolin-4-yl)piperidin-3-ol] | 5.30 to 6.30 | > 6.30 |
| COc1nc2c(N3CC4CCC(C3)N4)nc(OC[C@@]34CCCN3C[C@H](F)C4)nc2cc1-c1ccc(F)c2sc(N)nc12 [Compound 14, 4-(4-(3,8-diazabicyclo[3.2.1]octan-3-yl)-2-(((2R,7aS)-2-fluorotetrahydro-1H-pyrrolizin-7a(5H)-yl)methoxy)-6-methoxypyrido[3,2-d]pyrimidin-7-yl)-7-fluorobenzo[d]thiazol-2-amine] | 5.30 to 6.30 | > 6.30 |
| Nc1nc2c(-c3cc4nc(OCC56CCCN5CCC6)nc(N5CC6CCC(C5)N6)c4nc3O)ccc(F)c2s1 [Compound 16, 7-(2-amino-7-fluorobenzo[d]thiazol-4-yl)-4-(3,8-diazabicyclo[3.2.1]octan-3-yl)-2-((tetrahydro-1H-pyrrolizin-7a(5H)-yl)methoxy)pyrido[3,2-d] pyrimidin-6-ol] | < 5.30 | > 6.30 |
| CN1CCC[C@H]1COc1nc(N2CCC[C@@H](N)C2)c2cc(Cl)c(-c3cccc4sc(N)nc34)c(F)c2n1 [Compound 8, 4-(4-((R)-3-aminopiperidin-1-yl)-6-chloro-8-fluoro-2-(((S)-1-methylpyrrolidin-2-yl)methoxy)quinazolin-7-yl)benzo[d]thiazol-2-amine] | 5.30 to 6.30 | > 6.30 |
| COc1nc2c(N3CC4CCC(C3)N4)nc(OCC34CCCN3CCC4)nc2cc1-c1ccc(F)c2sc(N)nc12 [Compound 17, 4-(4-(3,8-diazabicyclo[3.2.1]octan-3-yl)-6-methoxy-2-((tetrahydro-1H-pyrrolizin-7a(5H)-yl)methoxy)pyrido[3,2-d]pyrimidin-7-yl)-7-fluorobenzo[d]thiazol-2-amine] | 5.30 to 6.30 | > 6.30 |
| COc1nc2c(N3CCNCC3)nc(OC[C@@]34CCCN3C[C@H](F)C4)nc2cc1-c1ccc(F)c2sc(N)nc12 [Compound 18, 7-fluoro-4-(2-(((2R,7aS)-2-fluorotetrahydro-1H-pyrrolizin-7a(5H)-yl)methoxy)-6-methoxy-4-(piperazin-1-yl)pyrido[3,2-d]pyrimidin-7-yl) benzo[d]thiazol-2-amine] | < 5.30 | 5.30 to 6.30 |
| Cc1c(N)sc2cccc(-c3c(Cl)cc4c(N5C[C@H]6CC[C@@H](C5)N6)nc(OC[C@@]56CCCN5C[C@H](F)C6)nc4c3F)c12 [Compound 22, 4-(4-((1R,5S)-3,8-diazabicyclo[3.2.1]octan-3-yl)-6-chloro-8-fluoro-2-(((2R,7aS)-2-fluorotetrahydro-1H-pyrrolizin-7a(5H)-yl)methoxy)quinazolin-7-yl)-3-methylbenzo[b]thiophen-2-amine] | > 6.30 | > 6.30 |
| CN1CCC[C@H]1COc1nc(N2C[C@H](N)C[C@H](O)C2)c2cc(Cl)c(-c3cccc4sc(N)nc34)c(F)c2n1 [Compound 3, (3S,5R)-5-amino-1-(7-(2-aminobenzo[d]thiazol-4-yl)-6-chloro-8-fluoro-2-(((S)-1-methylpyrrolidin-2-yl)methoxy)quinazolin-4-yl)piperidin-3-ol] | 5.30 to 6.30 | > 6.30 |
| CN1CCC[C@H]1COc1nc(N2C[C@H](N)C[C@@H](O)C2)c2cc(Cl)c(-c3cccc4sc(N)nc34)c(F)c2n1 [Compound 4, (3R,5R)-5-amino-1-(7-(2-aminobenzo[d]thiazol-4-yl)-6-chloro-8-fluoro-2-(((S)-1-methylpyrrolidin-2-yl)methoxy)quinazolin-4-yl)piperidin-3-ol] | < 5.30 | > 6.30 |
| CN1CCC[C@H]1COc1nc(N2C[C@H](N)C[C@@H](F)C2)c2cc(Cl)c(-c3cccc4sc(N)nc34)c(F)c2n1 [Compound 7, 4-(4-((3R,5R)-3-amino-5-fluoropiperidin-1-yl)-6-chloro-8-fluoro-2-(((S)-1-methylpyrrolidin-2-yl)methoxy)quinazolin-7-yl)benzo[d]thiazol-2-amine] | < 5.30 | 5.30 to 6.30 |
| CN1CCC[C@H]1COc1nc(N2CC[C@H](N)C2)c2cc(Cl)c(-c3cccc4sc(N)nc34)c(F)c2n1 [Compound 11, 4-(4-((S)-3-aminopyrrolidin-1-yl)-6-chloro-8-fluoro-2-(((S)-1-methylpyrrolidin-2-yl)methoxy)quinazolin-7-yl)benzo[d]thiazol-2-amine] | 5.30 to 6.30 | > 6.30 |
| CN1CCC[C@H]1COc1nc(N2C[C@H](N)C[C@H](F)C2)c2cc(Cl)c(-c3cccc4sc(N)nc34)c(F)c2n1 [Compound 6, 4-(4-((3R,5S)-3-amino-5-fluoropiperidin-1-yl)-6-chloro-8-fluoro-2-(((S)-1-methylpyrrolidin-2-yl)methoxy)quinazolin-7-yl)benzo[d]thiazol-2-amine] | < 5.30 | 5.30 to 6.30 |
| Nc1sc2c(F)ccc(-c3c(Cl)cc4c(N5C[C@H]6CC[C@@H](C5)N6)nc(OC[C@@]56CCCN5C[C@H](F)C6)nc4c3F)c2c1C1CC1 [Compound 20, 4-(4-((1R,5S)-3,8-diazabicyclo[3.2.1]octan-3-yl)-6-chloro-8-fluoro-2-(((2R,7aS)-2-fluorotetrahydro-1H-pyrrolizin-7a(5H)-yl)methoxy)quinazolin-7-yl)-3-cyclopropyl-7-fluorobenzo[b]thiophen-2-amine] | 5.30 to 6.30 | > 6.30 |
| COc1nc2c(N3C4CCC3CNC4)nc(OC[C@@]34CCCN3C[C@H](F)C4)nc2cc1-c1ccc(F)c2sc(N)nc12 [Compound 15, 4-(4-(3,8-diazabicyclo[3.2.1]octan-8-yl)-2-(((2R,7aS)-2-fluorotetrahydro-1H-pyrrolizin-7a(5H)-yl)methoxy)-6-methoxypyrido[3,2-d]pyrimidin-7-yl)-7-fluorobenzo[d]thiazol-2-amine] | < 5.30 | > 6.30 |
| Cc1c(N)sc2c(F)ccc(-c3c(Cl)cc4c(N5C[C@H]6CC[C@@H](C5)N6)nc(OC[C@@]56CCCN5C[C@H](F)C6)nc4c3F)c12 [Compound 21, 4-(4-((1R,5S)-3,8-diazabicyclo[3.2.1]octan-3-yl)-6-chloro-8-fluoro-2-(((2R,7aS)-2-fluorotetrahydro-1H-pyrrolizin-7a(5H)-yl)methoxy)quinazolin-7-yl)-7-fluoro-3-methylbenzo[b]thiophen-2-amine] | > 6.30 | > 6.30 |
| CN1CCC[C@H]1COc1nc(N2C[C@@H](N)[C@@H](F)C2)c2cc(Cl)c(-c3cccc4sc(N)nc34)c(F)c2n1 [Compound 10, 4-(4-((3R,4S)-3-amino-4-fluoropyrrolidin-1-yl)-6-chloro-8-fluoro-2-(((S)-1-methylpyrrolidin-2-yl)methoxy)quinazolin-7-yl)benzo[d]thiazol-2-amine] | 5.30 to 6.30 | 5.30 to 6.30 |
| Nc1nc2c(-c3c(Cl)cc4c(N5CCNCC5)nc(OCC56CCCN5CCC6)nc4c3F)cccc2s1 [Compound 12, 4-(6-chloro-8-fluoro-4-(piperazin-1-yl)-2-((tetrahydro-1H-pyrrolizin-7a(5H)-yl)methoxy)quinazolin-7-yl)benzo[d]thiazol-2-amine] | 5.30 to 6.30 | > 6.30 |
| Nc1nc2c(-c3cnc4c(N5CC6CCC(C5)N6)nc(OC[C@@]56CCCN5C[C@H](F)C6)nc4c3)ccc(F)c2s1 [Compound 13, 4-(4-(3,8-diazabicyclo[3.2.1]octan-3-yl)-2-(((2R,7aS)-2-fluorotetrahydro-1H-pyrrolizin-7a(5H)-yl)methoxy)pyrido[3,2-d]pyrimidin-7-yl)-7-fluorobenzo[d]thiazol-2-amine] | < 5.30 | > 6.30 |
| N#Cc1c(N)sc2c(F)ccc(-c3c(Cl)cc4c(N5C[C@H]6CC[C@@H](C5)N6)nc(OC[C@@]56CCCN5C[C@H](F)C6)nc4c3F)c12 [Compound 19, 4-(4-((1R,5S)-3,8-diazabicyclo[3.2.1]octan-3-yl)-6-chloro-8-fluoro-2-(((2R,7aS)-2-fluorotetrahydro-1H-pyrrolizin-7a(5H)-yl)methoxy)quinazolin-7-yl)-2-amino-7-fluorobenzo[b]thiophene-3-carbonitrile] | > 6.30 | > 6.30 |
